The nature of series [1]: In vitro release in FeSSIF with 1% v/v Tween 20 (Polysorbate 20), Example 2, FIG. 4. In kind it is physicochemical. To be noted: FeSSIF + 1% v/v Tween 20, 37° C. As to the method:
(§1) Release Kinetics in Vitro: Simulated gastric fluid (FaSSGF) and intestinal fluids (FaSSIF and FeSSIF) are prepared according to the manufacturer's instructions. Dissolution tests are performed with spray dried DHM-containing powders or tablets with the appropriate controls. Release under Gastric Conditions: DHM-containing spray dried powder samples are suspended in prewarmed FaSSGF (37° C.) to achieve a drug (DHM) concentration of roughly 10-100× the previously determined equilibrium solubility in the FaSSGF fluid (e.g., 75 μg/mL) by pipetting up and down vigorously multiple times. The samples are incubated for the duration of the study (e.g., 30 min) at 37° C. […] The samples are then diluted as appropriate to fall within the detection range and analyzed by high-performance liquid chromatography (HPLC), with the mobile phase as 80:20 H2O: acetonitrile (each with 0.05% trifluoroacetic acid), and with detection with UV-Vis at 290 nm. The concentration of DHM is then calculated based on a calibration curve. […] The samples are then diluted as appropriate to fall within the detection range and analyzed by HPLC, with the mobile phase as 80:20 H2O: acetonitrile (each with 0.05% trifluoroacetic acid), and with detection with UV-Vis at 290 nm. The concentration of DHM is then calculated based on a calibration curve. […]

Series [2] in a line: Equilibrium solubility of crystalline DHM in simulated intestinal fluids (FeSSIF, FaSSIF). Format: physicochemical. To be noted: thermodynamic from solid.
The conditions of series [3]: low solubility and permeability; cited from earlier work.
For series [4] the following is noted: reference [17]; cited from earlier work.
Series [5] can be described thus: In vitro release in fed state simulated intestinal fluid (FeSSIF), Example 1, FIG. 3. As to conditions: 37° C., loaded at 1400 μg/mL DHM, 360 minute timepoint. In kind it is physicochemical. The protocol:
as §1

The structures appear in SMILES notation. In brackets after ≈: the same amount, converted by molar mass. Read-outs that look alike come from different tables or passages of the source.

Regarding `O=C1c2c(O)cc(O)cc2O[C@H](c2cc(O)c(O)c(O)c2)[C@H]1O` [DHM, dihydromyricetin], the “effect of Tween 20 (Polysorbate 20) surfactant on solubility of DHM” value in series [1] is “increased”. In addition, the solubility thermodynamic in series [2] (Fasted State Simulated Intestinal Fluid (FaSSIF), pH 6.5, fassif, fasted state simulated intestinal fluid, pH 6.5, read-out: equilibrium solubility in FaSSIF) was around 50 µg/mL (≈ 156 µM); in series [2] (Fed State Simulated Intestinal Fluid (FeSSIF), pH 5, fessif, fed state simulated intestinal fluid, pH 5.0, read-out: equilibrium solubility in FeSSIF) it was around 140 µg/mL (≈ 437 µM). In addition, the BCS class entry in series [3] is on record as “BCS class IV”. In addition, the oral bioavailability entry in series [4] is on record as “less than 5%”. Moreover, the “dissolved DHM concentration at completion of the release study” value in series [5] is “approximately reached its previously determined equilibrium concentration”.

The values above are taken from patent US20240408050A1, “DIHYDROMYRICETIN SPRAY-DRIED DISPERSION FORMULATIONS AND METHODS FOR FORMING THEM” (The Trustees of Princeton University, priority 2018, published 2024).
